In patent US20220056014A1, “PHENYLPYRROLIDINE COMPOUND AND USE THEREOF” (WUHAN HUMANWELL INNOVATIVE DRUG RESEARCH AND DEVELOPMENT …, priority 2018, published 2022):

Experiments:
[1] = target: T1, PDE4B (Homo sapiens, UniProt Q07343); experiment: PDE4B enzyme activity assay (PDE-Glo Phosphodiesterase Assay Kit); format: biochemical; details: for IC50 (PDE4D)/IC50 (PDE4B): selectivity ratio
T1 construct: purchased Enzo Life Sciences BML-SE522-0020
Experimental: (§1) For the previously synthesized compounds, the inhibitory activity of the compounds against PDE4B and against PDE4D was tested by using PDE-Glo Phosphodiesterase Assay Kit (promega, V1361). In short, in accordance with the instructions of the kit, a concentrated stock solution (10 mM) the compound to be tested was first prepared with DMSO solvent, and the concentrated stock solution was then diluted into 10× working solutions with a Reaction buffer provided in the kit. With the Reaction buffer, on ice, PDE4B enzyme (Enzo Life Sciences, BML-SE522-0020) was diluted to a concentration of 1 ng/μl to obtain a PDE4B enzyme working solution, and PDE4D enzyme (Enzo Life Sciences, BML-SE523-0020) was diluted to a concentration of 4 ng/μl to obtain a PDE4D enzyme working solution. 1.5 μl of the PDE4B working solution (or PDE4D working solution) and 1 μl of the compound working solution were added to wells of 384-well plate (Corning, CLS3707), and incubated with shaking at room temperature for 5 min, followed by adding 2.5 μl of cAMP (in Reaction buffer, 2 μM) per well, incubating with shaking at room temperature for 20 min. 2.5 μl/well of 1× Termination Buffer, and then 2.5 μl/well of 1× Detection Buffer were added, and further incubated with shaking at room temperature for 20 min. 10 μl/well of 1× Kinase-Glo was added, and the plate was incubated with shaking at room temperature for 10 min, and bioluminescence was measured with PheraStar instrument. The experimental results were plotted with GraphPad Prism software, and fitted to calculate IC50 of each compound.

[2] = target: T2, PDE4D (Homo sapiens, UniProt Q08499); experiment: PDE4D enzyme activity assay (PDE-Glo Phosphodiesterase Assay Kit); format: biochemical
T2 construct: purchased Enzo Life Sciences BML-SE523-0020
Experimental: as §1

[3] = system: LPS-induced secretion of TNFα in human PBMCs; experiment: LPS-induced secretion of TNFα in human PBMCs; format: cell-based; details: 24 h, LPS 10 ng/ml
Experimental: Extraction process of peripheral blood mononuclear cells (PBMCs): one unit of human peripheral blood concentrate (concentrated from 200 cc peripheral blood) was sucked and added with 0.9% saline until a total volume reached 120 ml, and mixed homogenously. 15 ml Lymphoprep™ was added into 50 ml centrifuge tube, and then 30 ml of diluted blood concentrate was carefully and slowly added thereto, allowing the diluted blood to be stacked on the layered solution and preventing the diluted blood from being mixed into the separated solutions or breaking the surface of the separated solution, wherein a ratio of Lymphoprep™ to the diluted blood was 1:2. The centrifuge tubes were balanced and placed in a horizontal centrifuge (eppendorf, 5810R), and centrifuged at 800 g and 20° C. for 20 min. The centrifuge tubes were carefully taken out. PBMCs were absorbed by directly inserting the Pasteur pipette deep into the buffy coat. The obtained PBMCs were gently pipetted with 3 times the volume of 0.9% normal saline or PBS (without calcium or magnesium ions) to mix homogenously. After that, the cells were centrifuged at 250 g and 20° C. for 10 min, the supernatant was removed to remove the platelets remaining in the cell suspension. The obtained cell pellet was resuspended in 20 ml of PBS, and counted using trypan blue.
Compound screening by using PBMCs: the PBMC suspension obtained above was centrifuged to remove PBS, then resuspended in complete medium (RPMI1640+10% FBS+1% P/S) and counted. 100 μL/well of the cells was seeded at 5×10^4/well. Each of the compounds to be screened was prepared as 4 times the final concentration, which was added to the cells at 50 μL/well. The compound was pre-incubated for 30 min in advance of being added to the cells. Meanwhile, control wells to which the compound was not added were provided. A final stimulation concentration of LPS was 10 ng/ml, and LPS was formulated as 4 times the final stimulation concentration, and added to the cells at 50 μL/well. Meanwhile, control wells, i.e., wells without LPS were provided. The cells were incubated for 24 h, and 10% of the supernatant was collected for detection. The obtained supernatant was detected using Invitrogen's Human TNF-α kit (REF: 88-7346-88).

T1 sequence (Q07343 whole entry): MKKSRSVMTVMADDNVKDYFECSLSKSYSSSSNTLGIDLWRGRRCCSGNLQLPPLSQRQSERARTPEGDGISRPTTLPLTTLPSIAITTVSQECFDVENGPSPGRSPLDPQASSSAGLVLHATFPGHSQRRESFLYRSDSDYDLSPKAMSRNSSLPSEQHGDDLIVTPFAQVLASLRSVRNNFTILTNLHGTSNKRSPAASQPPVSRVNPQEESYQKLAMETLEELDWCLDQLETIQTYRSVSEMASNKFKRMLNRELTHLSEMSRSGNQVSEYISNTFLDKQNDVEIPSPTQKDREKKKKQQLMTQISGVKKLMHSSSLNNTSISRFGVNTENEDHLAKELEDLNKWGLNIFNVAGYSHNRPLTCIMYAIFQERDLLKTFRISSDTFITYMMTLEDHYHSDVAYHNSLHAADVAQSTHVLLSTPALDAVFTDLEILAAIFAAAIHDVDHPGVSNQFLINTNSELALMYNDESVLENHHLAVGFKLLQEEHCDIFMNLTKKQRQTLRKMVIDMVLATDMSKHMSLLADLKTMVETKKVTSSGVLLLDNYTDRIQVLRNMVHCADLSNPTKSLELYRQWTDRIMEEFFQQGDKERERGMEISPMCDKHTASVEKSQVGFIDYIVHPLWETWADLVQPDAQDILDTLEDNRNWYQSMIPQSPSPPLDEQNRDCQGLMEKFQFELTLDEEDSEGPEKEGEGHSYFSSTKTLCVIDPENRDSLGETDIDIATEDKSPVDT
T2 sequence (Q08499 whole entry): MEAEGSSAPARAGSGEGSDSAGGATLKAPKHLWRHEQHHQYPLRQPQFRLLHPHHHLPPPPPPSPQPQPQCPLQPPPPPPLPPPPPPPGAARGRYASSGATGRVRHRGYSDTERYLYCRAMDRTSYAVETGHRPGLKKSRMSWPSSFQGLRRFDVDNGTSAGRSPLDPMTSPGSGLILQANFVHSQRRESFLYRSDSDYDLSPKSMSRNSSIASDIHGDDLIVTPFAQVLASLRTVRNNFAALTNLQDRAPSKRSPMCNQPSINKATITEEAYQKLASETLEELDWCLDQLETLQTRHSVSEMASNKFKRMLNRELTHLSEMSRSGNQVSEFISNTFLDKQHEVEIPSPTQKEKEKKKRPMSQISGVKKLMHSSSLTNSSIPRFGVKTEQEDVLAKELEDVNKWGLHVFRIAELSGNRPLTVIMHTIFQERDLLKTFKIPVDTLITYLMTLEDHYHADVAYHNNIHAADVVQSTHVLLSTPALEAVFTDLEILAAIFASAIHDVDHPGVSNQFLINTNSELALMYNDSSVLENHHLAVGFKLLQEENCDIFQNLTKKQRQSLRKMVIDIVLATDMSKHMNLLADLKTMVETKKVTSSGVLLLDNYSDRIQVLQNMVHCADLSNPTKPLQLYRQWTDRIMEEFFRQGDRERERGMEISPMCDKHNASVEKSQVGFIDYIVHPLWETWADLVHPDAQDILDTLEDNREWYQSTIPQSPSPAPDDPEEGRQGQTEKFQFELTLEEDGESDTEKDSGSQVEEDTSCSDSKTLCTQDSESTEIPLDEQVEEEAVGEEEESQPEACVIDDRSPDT

Structure (SMILES)	inhibition of PDE4B (in words) [1]	selective inhibitory activity against PDE4B versus PDE4D, compared with the positive control compound (in words) [1]	IC50 [1] [nM]	IC50 ([3]; Homo sapiens, PBMC) [nM]	other results
CCc1cnc(N2CC(Oc3cc([C@@H]4CN(C(=O)[C@@H](O)CO)C[C@@]4(C)[C@@H](C)O)ccc3OC)C2)cc1C [Compound 030, (S)-1-((3S,4S)-4-(3-((1-(5-ethyl-4-methylpyridin-2-yl)azetidin-3-yl)oxy)-4-methoxyphenyl)-3-((R)-1-hydroxyethyl)-3-methylpyrrolidin-1-yl)-2,3-dihydroxypropan-1-one]	effectively inhibit PDE4B	significantly higher than that control compound	–	–	–
COc1ccc([C@@H]2CN(C(=O)[C@@H](O)CO)C[C@@]2(C)[C@@H](C)O)cc1OC1CN(c2ncc(C)cc2C)C1 [Compound 021, (S)-1-((3S,4S)-4-(3-((1-(3,5-dimethylpyridin-2-yl)azetidin-3-yl)oxy)-4-methoxyphenyl)-3-((R)-1-hydroxyethyl)-3-methylpyrrolidin-1-yl)-2,3-dihydroxypropan-1-one]	–	–	4.15	14.1	IC50 [2]: 14.9 nM; IC50 (PDE4D)/IC50 (PDE4B) [1]: 3.59
COc1ccc([C@@H]2CN(C(=O)[C@@H](O)CO)C[C@@]2(C)[C@@H](C)O)cc1OC1CN(c2ncc(Cl)cn2)C1 [Compound 018, (S)-1-((3S,4S)-4-(3-((1-(5-chloropyrimidin-2-yl)azetidin-3-yl)oxy)-4-methoxyphenyl)-3-((R)-1-hydroxyethyl)-3-methylpyrrolidin-1-yl)-2,3-dihydroxypropan-1-one]	effectively inhibit PDE4B	significantly higher than that control compound	–	–	–
CCc1ccc(N2CC(Oc3cc([C@@H]4CN(C(=O)[C@@H](O)CO)C[C@@]4(C)[C@@H](C)O)ccc3OC)C2)nc1C [Compound 029, (S)-1-((3S,4S)-4-(3-((1-(5-ethyl-6-methylpyridin-2-yl)azetidin-3-yl)oxy)-4-methoxyphenyl)-3-((R)-1-hydroxyethyl)-3-methylpyrrolidin-1-yl)-2,3-dihydroxypropan-1-one]	effectively inhibit PDE4B	significantly higher than that control compound	–	–	–
COc1ccc([C@@H]2CN(C(=O)[C@@H](O)CO)C[C@@]2(C)[C@@H](C)O)cc1OC1CN(c2ccc(F)c(C)n2)C1 [Compound 026, (S)-1-((3S,4S)-4-(3-((1-(5-fluoro-6-methylpyridin-2-yl)azetidin-3-yl)oxy)-4-methoxyphenyl)-3-((R)-1-hydroxyethyl)-3-methylpyrrolidin-1-yl)-2,3-dihydroxypropan-1-one]	–	–	2.76	14.9	–
CCc1cnc(N2CC(Oc3cc([C@@H]4CN(C(=O)[C@@H](O)CO)C[C@@]4(C)[C@@H](C)O)ccc3OC)C2)nc1 [Compound 017, (S)-1-((3S,4S)-4-(3-((1-(5-ethylpyrimidin-2-yl)azetidin-3-yl)oxy)-4-methoxyphenyl)-3-((R)-1-hydroxyethyl)-3-methylpyrrolidin-1-yl)-2,3-dihydroxypropan-1-one]	effectively inhibit PDE4B	significantly higher than that control compound	–	–	–
COc1ccc([C@@H]2CN(C(=O)[C@@H](O)CO)C[C@@]2(C)[C@@H](C)O)cc1OC1CN(c2ccc(C#N)c(C)n2)C1 [Compound 013, 6-(3-(5-((3S,4S)-1-((S)-2,3-dihydroxypropanoyl)-4-((R)-1-hydroxyethyl)-4-methylpyrrolidin-3-yl)-2-methoxyphenoxy)azetidin-1-yl)-2-methylnicotinonitrile]	effectively inhibit PDE4B	significantly higher than that control compound	–	–	–
COc1ccc(N2CC(Oc3cc([C@@H]4CN(C(=O)[C@@H](O)CO)C[C@@]4(C)[C@@H](C)O)ccc3OC)C2)cn1 [Compound 020, (S)-2,3-dihydroxy-1-((3S,4S)-3-((R)-1-hydroxyethyl)-4-(4-methoxy-3-((1-(6-methoxypyridin-3-yl)azetidin-3-yl)oxy)phenyl)-3-methylpyrrolidin-1-yl)propan-1-one]	–	–	1.97	9.38	–
COc1ccc([C@@H]2CN(C(=O)[C@@H](O)CO)C[C@@]2(C)[C@@H](C)O)cc1OC1CN(c2ncc(C)cn2)C1 [Compound 016, (S)-2,3-dihydroxy-1-((3S,4S)-3-((R)-1-hydroxyethyl)-4-(4-methoxy-3-((1-(5-methylpyrimidin-2-yl)azetidin-3-yl)oxy)phenyl)-3-methylpyrrolidin-1-yl)propan-1-one]	effectively inhibit PDE4B	significantly higher than that control compound	–	–	–
CCc1nc(N2CC(Oc3cc([C@@H]4CN(C(=O)[C@@H](O)CO)C[C@@]4(C)[C@@H](C)O)ccc3OC)C2)ccc1C [Compound 027, (S)-1-((3S,4S)-4-(3-((1-(6-ethyl-5-methylpyridin-2-yl)azetidin-3-yl)oxy)-4-methoxyphenyl)-3-((R)-1-hydroxyethyl)-3-methylpyrrolidin-1-yl)-2,3-dihydroxypropan-1-one]	–	–	14.3	–	IC50 [2]: 24.8 nM; IC50 (PDE4D)/IC50 (PDE4B) [1]: 1.73
COc1ccc([C@@H]2CN(C(=O)[C@@H](O)CO)C[C@@]2(C)[C@@H](C)O)cc1OC1CN(c2ncc(Cl)cc2C)C1 [Compound 023, (S)-1-((3S,4S)-4-(3-((1-(5-chloro-3-methylpyridin-2-yl)azetidin-3-yl)oxy)-4-methoxyphenyl)-3-((R)-1-hydroxyethyl)-3-methylpyrrolidin-1-yl)-2,3-dihydroxypropan-1-one]	–	–	1.3	5.4	–
COc1ccc([C@@H]2CN(C(=O)[C@@H](O)CO)C[C@@]2(C)[C@@H](C)O)cc1OC1CN(c2ncc(C)cc2Cl)C1 [Compound 005, (S)-1-((3S,4S)-4-(3-((1-(3-chloro-5-methylpyridin-2-yl)azetidin-3-yl)oxy)-4-methoxyphenyl)-3-((R)-1-hydroxyethyl)-3-methylpyrrolidin-1-yl)-2,3-dihydroxypropan-1-one]	effectively inhibit PDE4B	significantly higher than that control compound	–	6.18	–
COc1ccc([C@@H]2CN(C(=O)[C@@H](O)CO)C[C@@]2(C)[C@@H](C)O)cc1OC1CN(c2ncc(Cl)cc2F)C1 [Compound 024, (S)-1-((3S,4S)-4-(3-((1-(5-chloro-3-fluoropyridin-2-yl)azetidin-3-yl)oxy)-4-methoxyphenyl)-3-((R)-1-hydroxyethyl)-3-methylpyrrolidin-1-yl)-2,3-dihydroxypropan-1-one]	effectively inhibit PDE4B	significantly higher than that control compound	–	–	IC50 [3]: 6.56 nM
COc1ccc([C@@H]2CN(C(=O)[C@@H](O)CO)C[C@@]2(C)[C@@H](C)O)cc1OC1CN(c2cnc(C#N)cn2)C1 [Compound 019, 5-(3-(5-((3S,4S)-1-((S)-2,3-dihydroxypropanoyl)-4-((R)-1-hydroxyethyl)-4-methylpyrrolidin-3-yl)-2-methoxyphenoxy)azetidin-1-yl)pyrazine-2-carbonitrile]	–	–	1.87	–	–
